Our source for the Activity, Kinact and Ki values is ChEMBL document CHEMBL1641567, “Oxidative inactivation of the lymphoid tyrosine phosphatase mediated by both general and active site directed NO donors” (Bioorg Med Chem Lett, 2011).

The structures appear in SMILES notation. The source made the active and inactive calls. The calls are words filed in the database; no cut-off is given here. Starred links: 1 amine or outer side, 2 acyl side, 3 side chain; linkers in the order of their positions; H or OH if unused. Non-standard residues stand in square brackets, D forms with d. Residues, ends and D or L forms follow the SMILES beside them. X1 = O=NSCC[C@H](N[*:1])C(=O)[*:2]

The target in experiment [1] is T1, Tyrosine-protein phosphatase non-receptor type 22 (Homo sapiens) (UniProt Q9Y2R2).
T1 sequence (whole entry): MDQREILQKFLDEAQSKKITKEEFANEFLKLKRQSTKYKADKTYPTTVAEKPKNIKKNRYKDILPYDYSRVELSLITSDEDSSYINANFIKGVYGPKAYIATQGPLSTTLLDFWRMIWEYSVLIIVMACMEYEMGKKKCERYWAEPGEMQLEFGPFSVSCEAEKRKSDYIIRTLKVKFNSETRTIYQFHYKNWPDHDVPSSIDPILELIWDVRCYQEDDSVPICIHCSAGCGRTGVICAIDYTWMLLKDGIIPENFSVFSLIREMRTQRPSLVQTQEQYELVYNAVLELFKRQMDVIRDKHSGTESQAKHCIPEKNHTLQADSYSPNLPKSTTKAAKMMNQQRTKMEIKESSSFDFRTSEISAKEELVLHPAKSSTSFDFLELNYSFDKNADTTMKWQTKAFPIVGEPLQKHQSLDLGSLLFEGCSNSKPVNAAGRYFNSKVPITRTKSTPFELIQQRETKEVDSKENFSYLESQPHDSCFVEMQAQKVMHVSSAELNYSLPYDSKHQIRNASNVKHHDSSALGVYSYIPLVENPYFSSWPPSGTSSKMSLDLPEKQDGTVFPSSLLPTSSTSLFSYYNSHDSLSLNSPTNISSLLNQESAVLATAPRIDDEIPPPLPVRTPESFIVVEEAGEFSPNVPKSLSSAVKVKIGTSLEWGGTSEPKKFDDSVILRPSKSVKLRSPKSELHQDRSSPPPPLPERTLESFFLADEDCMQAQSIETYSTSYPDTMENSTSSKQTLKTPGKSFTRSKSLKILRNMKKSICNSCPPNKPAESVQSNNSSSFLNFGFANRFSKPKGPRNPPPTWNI
Put plainly: Oxidative inactivation of lymphoid tyrosine phosphatase by DiFMUP assay in presence of L-cysteine.

Experiment [2] concerns the target T1, Tyrosine-protein phosphatase non-receptor type 22 (Homo sapiens). The experiment is described as follows: Oxidative competitive inactivation of lymphoid tyrosine phosphatase by Lineweaver-Burk plot.
Experiment [3] shares this target. The experiment is described as follows: Oxidative inactivation of lymphoid tyrosine phosphatase assessed as NO release by ESI-MS spectrum.
For experiment [4] the target is unchanged. The experiment is described as follows: (§1) Oxidative inactivation of lymphoid tyrosine phosphatase by DiFMUP assay.
For experiment [5], the target named is T2, Tyrosine-protein phosphatase non-receptor type 22 (Homo sapiens, UniProt Q9Y2R2).
T2 sequence (Q9Y2R2 whole entry): T1 sequence (whole entry)
The experiment is described as §1.

Experiment [6] concerns the target T1, Tyrosine-protein phosphatase non-receptor type 22 (Homo sapiens). Put plainly: Oxidative inactivation of lymphoid tyrosine phosphatase at 1 to 100 uM by DiFMUP assay. The settings on record: TDE = time-dependent effect.

In the case of `CC[C@H](C)[C@H](NC(=O)[C@H](CC(C)C)NC(=O)[C@H](CCCNC(=N)N)NC(=O)[C@H](C)NC(C)=O)C(=O)N[C@@H](CCC(=O)O)C(=O)N[C@@H](CC(=O)O)C(=O)N[C@@H](CC(N)=O)C(=O)N[C@@H](CCC(=O)O)C(=O)N[C@@H](CCSN=O)C(=O)N[C@H](C(=O)N[C@@H](C)C(=O)N[C@@H](CCCNC(=N)N)C(=O)N[C@@H](CCC(=O)O)C(=O)NCC(N)=O)[C@@H](C)O` (Ac-ARLIEDNE[X1]TAREG-NH2), the outcome in experiment [1] was inactive. Moreover, the result in experiment [2] and in experiment [3] was Active. Besides, the Activity entry was “Dose-dependent effect” in experiment [4] and “tde” in experiment [6]. The same compound returned a Kinact in experiment [4] of 0.0472 min⁻¹. Also, the Ki in experiment [5] stood at 7 µM.
